Assay [1] deals with Clostridium botulinin. In kind it is cell-based.
Assay [2] concerns Francisella tularensis. The assay is classed as cell-based.
In assay [3] the test system is Bacillus anthracis. In kind it is cell-based.
Assay [4] concerns Burkholderia mallei. The assay is classed as cell-based.
In assay [5] the test system is Brucella abortis, B milletensis and B suis. In kind it is cell-based.
For assay [6], the system named is Yersinia Pestis. The assay is classed as cell-based.
The test system of assay [7] is Clostridium perfringens. The assay is classed as cell-based.
Assay [8] concerns anthrax infection. Particulars: in vivo; cited from earlier work.
Assay [9] has as its system B anthracis. The conditions noted are these: cited from earlier work.

Counter-ions that a name gives are not always drawn.

For `CO/N=C(\C(=O)N[C@@H]1C(=O)N2C(C(=O)O)=C(COC(N)=O)CS[C@H]12)c1ccco1` [Cefuroxime], the “Suitability against Clostridium botulinin” value in assay [1] is reported as “No”. Also, the “Suitability against Francisella tularensis” value in assay [2] is listed as “Yes”. For the same molecule, in [3], the “Suitability against Bacillus anthracis” value is listed as “Yes”. Besides, the “Suitability against Burkholderia mallei” value in assay [4] is “No”. In addition, the “Suitability against Brucella abortis, B milletensis and B suis” value (from here on “Suitability against Brucella abortis”) in assay [5] is listed as “No”. In addition, the “Suitability against Yersinia Pestis” value in assay [6] is “Yes”. For the same molecule, the “Suitability against Clostridium perfringens” value in assay [7] is on record as “No”.

On to `CCn1nc(C(=O)O)c(=O)c2cc3c(cc21)OCO3` [Cinoxacin], for which the “Suitability against Clostridium botulinin” value in assay [1] was “No”. Further, the “Suitability against Francisella tularensis” value in assay [2] is “Yes”. Also, in [3], the “Suitability against Bacillus anthracis” value is given as “Yes”. In assay [4], the “Suitability against Burkholderia mallei” value is listed as “No”. Also, the “Suitability against Brucella abortis” value in [5] is on record as “No”. In addition, the “Suitability against Yersinia Pestis” value in assay [6] was “Yes”. Besides, the “Suitability against Clostridium perfringens” value in assay [7] was “No”.

Take `N[C@@H](C(=O)N[C@@H]1C(=O)N2C(C(=O)O)=C(Cl)CS[C@H]12)c1ccccc1` [Cefaclor, 3-chloro-7-D-(2-phenylglycinamido)-3-cephem-4-carboxylic acid monohydrate]: the “Suitability against Clostridium botulinin” value in [1] is “No”. For the same molecule, the “Suitability against Francisella tularensis” value in assay [2] is reported as “Yes”. Moreover, in assay [3], the “Suitability against Bacillus anthracis” value is listed as “Yes”. Further, in [4], the “Suitability against Burkholderia mallei” value is “No”. In assay [5], the “Suitability against Brucella abortis” value is “No”. Moreover, in assay [6], the “Suitability against Yersinia Pestis” value is given as “Yes”. Further, the “Suitability against Clostridium perfringens” value in assay [7] is “No”.

Turning to `NC[C@H]1O[C@H](O[C@H]2[C@H](O)[C@@H](O[C@H]3O[C@H](CO)[C@@H](O)[C@H](N)[C@H]3O)[C@H](N)C[C@@H]2N)[C@H](N)C[C@@H]1O` [Tobramycin], the “Suitability against Clostridium botulinin” value in assay [1] is on record as “No”. In addition, the “Suitability against Francisella tularensis” value in [2] is listed as “Yes”. Also, the “Suitability against Bacillus anthracis” value in assay [3] was “Yes”. Besides, in assay [4], the “Suitability against Burkholderia mallei” value is “Yes”. Moreover, the “Suitability against Brucella abortis” value in assay [5] was “Yes”. In addition, the “Suitability against Yersinia Pestis” value in [6] was “Yes”. Moreover, the “Suitability against Clostridium perfringens” value in assay [7] is given as “No”.

Turning to `O=C(O)c1cn(C2CC2)c2cc(N3CCNCC3)c(F)cc2c1=O` [ciprofloxacin], the “Efficacy in treatment of anthrax infection, animal models” value in [8] is given as “excellent efficacy”.

For the molecule `CC1=C(C(=O)O)N2C(=O)[C@@H](NC(=O)[C@H](N)c3ccccc3)[C@H]2SC1` [Cephalexin Monohydrate], the “Suitability against Clostridium botulinin” value in [1] was “No”. Also, the “Suitability against Francisella tularensis” value in assay [2] is given as “Yes”. In assay [3], the “Suitability against Bacillus anthracis” value was “Yes”. Further, the “Suitability against Burkholderia mallei” value in [4] was “No”. The “Suitability against Brucella abortis” value in [5] is “No”. Also, in assay [6], the “Suitability against Yersinia Pestis” value is recorded as “Yes”. In addition, the “Suitability against Clostridium perfringens” value in assay [7] was “No”.

Take `Cn1nnnc1SCC1=C(C(=O)O)N2C(=O)[C@@H](NC(=O)[C@H](O)c3ccccc3)[C@H]2SC1` [Cefamandole]: the “Suitability against Clostridium botulinin” value in [1] was “No”. Also, the “Suitability against Francisella tularensis” value in [2] is given as “Yes”. Besides, the “Suitability against Bacillus anthracis” value in assay [3] is reported as “Yes”. Further, the “Suitability against Burkholderia mallei” value in [4] was “No”. Also, the “Suitability against Brucella abortis” value in assay [5] is “No”. Also, in assay [6], the “Suitability against Yersinia Pestis” value is “Yes”. The “Suitability against Clostridium perfringens” value in [7] is on record as “No”.

In the case of `CCCCCCCCCC(=O)N[C@@H](Cc1c[nH]c2ccccc12)C(=O)N[C@H](CC(N)=O)C(=O)N[C@@H](CC(=O)O)C(=O)N[C@@H]1C(=O)NCC(=O)N[C@@H](CCCN)C(=O)N[C@@H](CC(=O)O)C(=O)N[C@H](C)C(=O)N[C@@H](CC(=O)O)C(=O)NCC(=O)N[C@H](CO)C(=O)N[C@@H]([C@H](C)CC(=O)O)C(=O)N[C@@H](CC(=O)c2ccccc2N)C(=O)O[C@@H]1C` [Daptomycin, N-(1-oxodecyl)-L-tryptophyl-L-asparaginyl-L-A-aspartyl-L-threonylglycyl-L-ornithyl-L-A-aspartyl-D-alanyl-L-A-aspartylglycyl-D-seryl-threo-3-methyl-L-A-glutamyl-G-(2-aminophenyl)-G-oxo-L-A-aminobutanoicacid, E1-lactone], the “Suitability against Clostridium botulinin” value in assay [1] is listed as “Yes*”. Also, the “Suitability against Francisella tularensis” value in assay [2] is “No”. Moreover, the “Suitability against Bacillus anthracis” value in [3] is on record as “Yes”. Also, in [4], the “Suitability against Burkholderia mallei” value is reported as “No”. The “Suitability against Brucella abortis” value in assay [5] is “No”. Besides, the “Suitability against Yersinia Pestis” value in assay [6] was “No”. Besides, in assay [7], the “Suitability against Clostridium perfringens” value is on record as “Yes**”.

`CC(=O)OCC1=C(C(=O)O)N2C(=O)[C@@H](NC(=O)Cc3cccs3)[C@H]2SC1` [Cephalothin]: in assay [1], the “Suitability against Clostridium botulinin” value was “No”. In addition, the “Suitability against Francisella tularensis” value in [2] was “Yes”. Besides, in assay [3], the “Suitability against Bacillus anthracis” value is listed as “Yes”. The “Suitability against Burkholderia mallei” value in assay [4] is given as “No”. Further, in assay [5], the “Suitability against Brucella abortis” value is on record as “No”. For the same molecule, the “Suitability against Yersinia Pestis” value in assay [6] is on record as “Yes”. Also, the “Suitability against Clostridium perfringens” value in assay [7] is recorded as “No”.

As for `N[C@@H](C(=O)N[C@@H]1C(=O)N2C(C(=O)O)=C(Cl)CC[C@H]12)c1ccccc1.O` [Loracarbef, (6R,7S)-7-[(R)-2-amino-2-phenylacetamido]-3-chloro-8-oxo-1-azabicyclo[4.2.0]oct-2-ene-2-carboxylic acid, monohydrate], the “Suitability against Clostridium botulinin” value in [1] is given as “No”. For the same molecule, in [2], the “Suitability against Francisella tularensis” value was “Yes”. In addition, the “Suitability against Bacillus anthracis” value in assay [3] is recorded as “Yes”. In addition, the “Suitability against Burkholderia mallei” value in assay [4] is on record as “No”. Also, the “Suitability against Brucella abortis” value in assay [5] is listed as “No”. The “Suitability against Yersinia Pestis” value in assay [6] was “Yes”. Also, the “Suitability against Clostridium perfringens” value in assay [7] is reported as “No”.

In the case of `CN[C@H](CC(C)C)C(=O)N[C@H]1C(=O)N[C@@H](CC(N)=O)C(=O)N[C@H]2C(=O)N[C@H]3C(=O)N[C@H](C(=O)N[C@H](C(=O)O)c4cc(O)cc(O)c4-c4cc3ccc4O)[C@H](O)c3ccc(c(Cl)c3)Oc3cc2cc(c3O[C@@H]2O[C@H](CO)[C@@H](O)[C@H](O)[C@H]2O[C@H]2C[C@](C)(N)[C@H](O)[C@H](C)O2)Oc2ccc(cc2Cl)[C@H]1O` [Vancomycin HCl], the “Suitability against Clostridium botulinin” value in [1] is recorded as “Yes*”. Moreover, the “Suitability against Francisella tularensis” value in assay [2] is “No”. The “Effective against B anthracis in vitro” value in [9] is given as “effective”. In addition, the “Suitability against Bacillus anthracis” value in assay [3] is recorded as “Yes”. Moreover, the “Suitability against Burkholderia mallei” value in assay [4] was “No”. For the same molecule, the “Suitability against Brucella abortis” value in assay [5] is on record as “No”. Further, the “Suitability against Yersinia Pestis” value in [6] is given as “No”. For the same molecule, the “Suitability against Clostridium perfringens” value in assay [7] is listed as “Yes**”.

As to `Cc1nnc(SCC2=C(C(=O)O)N3C(=O)[C@@H](NC(=O)Cn4cnnn4)[C@H]3SC2)s1` [Cefazolin], in [2], the “Suitability against Francisella tularensis” value is listed as “Yes”. Moreover, in [9], the “Effective against B anthracis in vitro” value is on record as “effective”. Further, in assay [3], the “Suitability against Bacillus anthracis” value is listed as “Yes”. In addition, the “Suitability against Burkholderia mallei” value in assay [4] is recorded as “No”. For the same molecule, the “Suitability against Brucella abortis” value in [5] is on record as “No”. Besides, the “Suitability against Yersinia Pestis” value in assay [6] is “Yes”.

For `O=C(N[C@H](CO)[C@H](O)c1ccc([N+](=O)[O-])cc1)C(Cl)Cl` [chloramphenicol], in assay [9], the “Effective against B anthracis in vitro” value was “effective”.

As to penicillin, the “Sensitivity of naturally occurring anthrax strains” value in [9] is given as “sensitive”.

`CN[C@H](CC(C)C)C(=O)N[C@H]1C(=O)N[C@@H](CC(N)=O)C(=O)N[C@H]2C(=O)N[C@H]3C(=O)N[C@H](C(=O)N[C@H](C(=O)O)c4cc(O)cc(O)c4-c4cc3ccc4O)[C@H](O[C@H]3C[C@](C)(N)[C@@H](O)[C@H](C)O3)c3ccc(c(Cl)c3)Oc3cc2cc(c3O[C@@H]2O[C@H](CO)[C@@H](O)[C@H](O)[C@H]2O[C@H]2C[C@](C)(NCc3ccc(-c4ccc(Cl)cc4)cc3)[C@@H](O)[C@H](C)O2)Oc2ccc(cc2Cl)[C@H]1O` [Oritavancin, (4″R)-22-O-(3-amino-2,3,6-trideoxy-3-C-methyl-A-L-arabino-hexopyranosyl)-N3″-((4-chloro(1,1′-biphenyl)-4′-yl)methyl)vancomycin]: the “Suitability against Clostridium botulinin” value in assay [1] was “Yes*”. For the same molecule, in assay [2], the “Suitability against Francisella tularensis” value is listed as “No”. In assay [3], the “Suitability against Bacillus anthracis” value is reported as “Yes”. Besides, the “Suitability against Burkholderia mallei” value in assay [4] is listed as “No”. Besides, in assay [5], the “Suitability against Brucella abortis” value is given as “No”. The “Suitability against Yersinia Pestis” value in [6] is given as “No”. Besides, the “Suitability against Clostridium perfringens” value in assay [7] is “Yes**”.

Take `CC[C@H]1OC(=O)[C@H](C)[C@@H](O[C@H]2C[C@@](C)(OC)[C@@H](O)[C@H](C)O2)[C@H](C)[C@@H](O[C@@H]2O[C@H](C)C[C@H](N(C)C)[C@H]2O)[C@](C)(O)C[C@@H](C)C(=O)[C@H](C)[C@@H](O)[C@]1(C)O` [erythromycin]: the “Effective against B anthracis in vitro” value in assay [9] is listed as “effective”.

Source of the values: US20030176327A1 (priority 2001, published 2003).
